# Measured values published in US20230123601A1, “PHARMACEUTICAL COMBINATION OF ANTIVIRAL AGENTS TARGETING HBV AND/OR AN IMMUNE MODULATOR FOR TREATMENT OF HBV” (priority 2019, published 2023).
# Tested on: HBV
# Experiment: HBsAg levels in serum of AAV/HBV mice (CLIA)
# Assay type: in vivo, C57BL/6 mice
# Design: HBsAg levels in serum (Average ± SD): scale not given here
# Excerpt: The AAV-HBV mouse model is generated by injecting C57BL/6 mice with recombinant adeno-associated virus harboring a replicable HBV genome (AAV-HBV). The rAAV8-1.3 HBV ayw virus stock was purchased from Beijing FivePlus Molecular Medicine Institute (Beijing, China). The animals (male, aged 4-5 weeks upon arrival) were purchased from SLAC Laboratory Animal Co. Ltd (Shanghai, China), acclimatized in the animal facility for 5-7 days, and then injected with 1×10^11 vector genome of AAV-HBV (diluted in 200 μL of PBS) through the tail vein. Persistence expression of HBV genome can be established after three weeks, with high levels of HBV viral markers including HBV DNA, HBsAg, and HBeAg in mouse serum. With stable HBV viremia and competent immune system of the C57BL/6 mice, the AAV-HBV mouse model was used to evaluate the in vivo anti-HBV efficacy of the compounds. The in-life part of the AAV-HBV study was conducted through contracted service at Covance Pharmaceutical Research and Development (Shanghai) Co. Ltd. (Covance Shanghai) and the post-life analysis using the serum was performed internally at Roche Innovation Center Shanghai (RICS).
# Seven days before compound treatment, blood samples were collected for serum preparation (˜15 μL), and based on HBV DNA, HBsAg levels in serum and body weight, the AAV-HBV infected animals were stratified into the different treatment groups.
# Saline (Group 01) and anti-HBV ASO of CMP ID NO: 15_1 at 1.5 or 7.5 mg/kg were dosed sub subcutaneously once a week during Day 0-49 on Days 0, 7, 14, 21, 28, 35, 42 and 49. TLR7 agonist of CMP ID NO: VI 100 mg/kg was administered by oral gavage once every other day during Day 0-55 (QOD) or once weekly during Day 0-49 on Days 0, 7, 14, 21, 28, 35, 42 and 49 (QW). The animals were weekly bled via retro-orbital sinus for sample collection throughout the study.
# Serum HBsAg levels were determined in the serum of infected AAV-HBV mouse using the HBsAg chemoluminescence immunoassay (CLIA) (Autobio diagnostics Co. Ltd., Zhengzhou, China, Cat. no. CL0310-2), according to the manufacturer's protocol. Briefly, 50 μl of serum was transferred to the antibody coated microtiter plate and 50 μl of enzyme conjugate reagent was added. The plate was incubated for 60 min on a shaker at room temperature before all wells were washed six times with washing buffer using an automatic washer. 25 μl of substrate A and then 25 μl of substrate B was added to each well. The plate was incubated for 10 min at RT before luminescence was measured using an Envision luminescence reader (Perkin Elmer). HBsAg is given in the unit IU/ml; where 1 ng HBsAg=1.14 IU.
# To evaluate the combination of the anti-HBV ASO and the TLR7 agonist in an in vivo system, a mouse model of chronic HBV infection was used. In the AAV/HBV mouse model described in the Materials and Method a persistent HBV infection is established resulting in expression of viral markers (HBsAg, HBeAg, HBV DNA) detectable in plasma. The effect on these viral markers upon treatment with the anti-HBV ASO of CMP ID NO: 15_1 (table 2, and FIG. 4) dosed at 1.5 mg/kg or 7.5 mg/kg and the TLR7 agonist of CMP ID NO: VI (table 3) dosed with […] every other day (QOD) or once weekly (QW) in monotherapy or in combination has been evaluated.
compound,measurement,setting,value
"CC[C@H](OC(C)=O)[C@@H]1C[C@@H](O)[C@H](n2c(=O)sc3cnc(N)nc32)O1 [CMP ID NO: VI, [(1S)-1-[(2S,4R,5R)-5-(5-amino-2-oxo-thiazolo[4,5-d]pyrimidin-3-yl)-4-hydroxy-tetrahydrofuran-2-yl]propyl] acetate]",HBsAg levels in serum (Average ± SD),"D0, 15_1 1.5 mg/kg weekly, VI 100 mg/kg QOD, or combination of both",4.14 ± 0.37
same,HBsAg levels in serum (Average ± SD),"D0, 15_1 1.5 mg/kg weekly, VI 100 mg/kg QW, or combination of both",4.07 ± 0.44
same,HBsAg levels in serum (Average ± SD),"D0, 15_1 7.5 mg/kg weekly, VI 100 mg/kg QOD, or combination of both",4.14 ± 0.37
same,HBsAg levels in serum (Average ± SD),"D0, 15_1 7.5 mg/kg weekly, VI 100 mg/kg QW, or combination of both",4.07 ± 0.44
same,HBsAg levels in serum (Average ± SD),"D7, 15_1 1.5 mg/kg weekly, VI 100 mg/kg QOD, or combination of both",3.68 ± 1.03
same,HBsAg levels in serum (Average ± SD),"D7, 15_1 1.5 mg/kg weekly, VI 100 mg/kg QW, or combination of both",3.72 ± 0.85
same,HBsAg levels in serum (Average ± SD),"D7, 15_1 7.5 mg/kg weekly, VI 100 mg/kg QOD, or combination of both",3.68 ± 1.03
same,HBsAg levels in serum (Average ± SD),"D7, 15_1 7.5 mg/kg weekly, VI 100 mg/kg QW, or combination of both",3.72 ± 0.85
same,HBsAg levels in serum (Average ± SD),"D14, 15_1 1.5 mg/kg weekly, VI 100 mg/kg QOD, or combination of both",3.11 ± 1.35
same,HBsAg levels in serum (Average ± SD),"D14, 15_1 1.5 mg/kg weekly, VI 100 mg/kg QW, or combination of both",3.52 ± 0.96
same,HBsAg levels in serum (Average ± SD),"D14, 15_1 7.5 mg/kg weekly, VI 100 mg/kg QOD, or combination of both",3.11 ± 1.35
same,HBsAg levels in serum (Average ± SD),"D14, 15_1 7.5 mg/kg weekly, VI 100 mg/kg QW, or combination of both",3.52 ± 0.96
same,HBsAg levels in serum (Average ± SD),"D21, 15_1 1.5 mg/kg weekly, VI 100 mg/kg QOD, or combination of both",2.62 ± 1.41
same,HBsAg levels in serum (Average ± SD),"D21, 15_1 1.5 mg/kg weekly, VI 100 mg/kg QW, or combination of both",3.07 ± 1.22
same,HBsAg levels in serum (Average ± SD),"D21, 15_1 7.5 mg/kg weekly, VI 100 mg/kg QOD, or combination of both",2.62 ± 1.41
same,HBsAg levels in serum (Average ± SD),"D21, 15_1 7.5 mg/kg weekly, VI 100 mg/kg QW, or combination of both",3.07 ± 1.22
same,HBsAg levels in serum (Average ± SD),"D28, 15_1 1.5 mg/kg weekly, VI 100 mg/kg QOD, or combination of both",2.21 ± 1.28
same,HBsAg levels in serum (Average ± SD),"D28, 15_1 1.5 mg/kg weekly, VI 100 mg/kg QW, or combination of both",2.65 ± 1.37
same,HBsAg levels in serum (Average ± SD),"D28, 15_1 7.5 mg/kg weekly, VI 100 mg/kg QOD, or combination of both",2.21 ± 1.28
same,HBsAg levels in serum (Average ± SD),"D28, 15_1 7.5 mg/kg weekly, VI 100 mg/kg QW, or combination of both",2.65 ± 1.37
same,HBsAg levels in serum (Average ± SD),"D35, 15_1 1.5 mg/kg weekly, VI 100 mg/kg QOD, or combination of both",1.78 ± 1.18
same,HBsAg levels in serum (Average ± SD),"D35, 15_1 1.5 mg/kg weekly, VI 100 mg/kg QW, or combination of both",2.49 ± 1.29
same,HBsAg levels in serum (Average ± SD),"D35, 15_1 7.5 mg/kg weekly, VI 100 mg/kg QOD, or combination of both",1.78 ± 1.18
same,HBsAg levels in serum (Average ± SD),"D35, 15_1 7.5 mg/kg weekly, VI 100 mg/kg QW, or combination of both",2.49 ± 1.29
same,HBsAg levels in serum (Average ± SD),"D42, 15_1 1.5 mg/kg weekly, VI 100 mg/kg QOD, or combination of both",1.57 ± 0.97
same,HBsAg levels in serum (Average ± SD),"D42, 15_1 1.5 mg/kg weekly, VI 100 mg/kg QW, or combination of both",2.28 ± 1.28
same,HBsAg levels in serum (Average ± SD),"D42, 15_1 7.5 mg/kg weekly, VI 100 mg/kg QOD, or combination of both",1.57 ± 0.97
same,HBsAg levels in serum (Average ± SD),"D42, 15_1 7.5 mg/kg weekly, VI 100 mg/kg QW, or combination of both",2.28 ± 1.28
same,HBsAg levels in serum (Average ± SD),"D49, 15_1 1.5 mg/kg weekly, VI 100 mg/kg QOD, or combination of both",1.63 ± 0.86
same,HBsAg levels in serum (Average ± SD),"D49, 15_1 1.5 mg/kg weekly, VI 100 mg/kg QW, or combination of both",1.9 ± 1.07
same,HBsAg levels in serum (Average ± SD),"D49, 15_1 7.5 mg/kg weekly, VI 100 mg/kg QOD, or combination of both",1.63 ± 0.86
same,HBsAg levels in serum (Average ± SD),"D49, 15_1 7.5 mg/kg weekly, VI 100 mg/kg QW, or combination of both",1.90 ± 1.07
same,HBsAg levels in serum (Average ± SD),"D56, 15_1 1.5 mg/kg weekly, VI 100 mg/kg QOD, or combination of both",1.56 ± 0.77
same,HBsAg levels in serum (Average ± SD),"D56, 15_1 1.5 mg/kg weekly, VI 100 mg/kg QW, or combination of both",2.13 ± 1
same,HBsAg levels in serum (Average ± SD),"D56, 15_1 7.5 mg/kg weekly, VI 100 mg/kg QOD, or combination of both",1.56 ± 0.77
